Experimental data: patent US12553028B2, “Method to generate induced oligodendrocyte-lineage cells and treatment using such cells” (ACADEMIA SINICA, priority 2018, dated 2026)
“Also recorded” adds a separate entry of the source.

Legend:
[1] = tested on: human primary skin fibroblasts; assay: Generation of induced OLGs from skin fibroblasts by chemical treatment (morphology / conversion); assay type: cell-based; conditions: for morphology of induced OLGs when replacing VPA: replaces VPA at the first step induction, compared to the original cocktail
Procedure: (§1) Cells (1×10^4) were plated on each well of a 24-well plate. Culture in HG-DMEM (Life technologies) supplement with 10% fetal bovine serum (FBS) (Hyclone) for 2 days, replace the medium with Knockout medium supplement with 1% N2 supplement, 1% Albumax, 1% NEAA (treatment medium, all form Life technologies) or DMEM/F12 with 1% N2, 1% B27, 20 ng/mL PDGF-AA, EGF, bFGF and 10 ng/mL NT3 and added the different treatment chemical compound cocktails, The final condition are 3 mM Valproic acid for 2 days, 10 μM Y27632, 10 μM SU9516, 10 μM Forskolin (FSK) (Tocris) for 1 days; or 10 μM Mocetinostat or Pracinostat for 2 days, 10 μM Y27632, 10 μM SU9516, 10 μM Forskolin (FSK) (Tocris) for 1 days.

[2] = tested on: human primary skin fibroblasts; assay: Immunofluorescence assay of oligodendrocyte markers on induced cells; assay type: cell-based
Procedure: as §1
The induced OLGs were fixed with 4% formaldehyde for […] at room temperature. After washing with 1×PBS, cells were permeabilized with 0.03% Triton X-100 for 5 min. The cells were washed twice with 1×PBS, and then were incubated with primary antibodies [against Olig2 antibody (1:100; Merck millipore), Nkx2.2 (1:100; Stanta Cruz), O4 antibody (1:100; Merck millipore), MBP antibody (1:100; Proteintech), PDGFRα antibody (1:100; R&D systems)] and 4′,6-diamidino-2-phenylindole (DAPI) (1:1500; Life technologies) in blocking buffer (0.02% BSA in PBS) for overnight at 4° C. Cells were washed twice in 1×PBS, followed by an incubation in CF555 goat anti-rabbit secondary antibody (1:200; Life technologies), CF488 goat anti-rabbit secondary antibody (1:200; Biotium), CF555 goat anti-mouse secondary antibody (1:200; Life technologies), CF488 goat anti-mouse secondary antibody (1:200; Biotium), CF555 goat anti-rat secondary antibody (1:200; Life technologies) in blocking buffer for 1 hr in the dark at room temperature. Cells were washed twice in 1×PBS, and the cells will be keeping in 1×PBS. Fluorescence was analyzed by using a fluorescence microscope. The fluorescence intensity of each image was analyzed by an image analysis software (Image-Pro plus 4.5 software, MD, USA). Each immunofluorescence image was quantified more than 300 cells per field.

COc1ccc2c(c1)c(C1=C(c3c[nH]c4ccccc34)C(=O)NC1=O)cn2CCCN(C)C [Go6983, 3-{1-[3-(Dimethylamino)propyl]-5-methoxy-1H-indol-3-yl}-4-(1H-indol-3-yl)-1H-pyrrole-2,5-dione]
conversion of fibroblasts into OLG like cells [1]: dispensable for the conversion process | dendrite-like formation ([1]; Go6983 together with Y27632 and SU9516): promoted the dendrite-like formation

Nc1ccccc1NC(=O)c1ccc(CNc2nccc(-c3cccnc3)n2)cc1 [Mocetinostat, N-(2-aminophenyl)-4-((4-(pyridin-3-yl)pyrimidin-2-ylamino)methyl)benzamide]
morphology of induced OLGs when replacing VPA [1]: more mature oligodendroglia morphology | MBP expression (immunofluorescence) [2]: expressed; also recorded: stronger expression | O4 expression (immunofluorescence) [2]: expressed; also recorded: stronger expression

CCCCc1nc2cc(/C=C/C(=O)NO)ccc2n1CCN(CC)CC [Pracinostat, (E)-3-(2-butyl-1-(2-(diethylamino)ethyl)-1H-benzo[d]imidazol-5-yl)-N-hydroxyacrylamide]
morphology of induced OLGs when replacing VPA [1]: more mature oligodendroglia morphology | MBP expression (immunofluorescence) [2]: expressed; also recorded: stronger expression | O4 expression (immunofluorescence) [2]: expressed; also recorded: stronger expression

COc1ccc2c(c1)/C(=C/c1cnc[nH]1)C(=O)N2 [SU9516, (Z)-3-((1H-imidazol-5-yl)methylene)-5-methoxyindolin-2-one]
morphological change of fibroblasts [1]: domed-shape formation

C[C@@H](N)[C@H]1CC[C@H](C(=O)Nc2ccncc2)CC1 [Y27632, Trans-4-[(1R)-1-Aminoethyl]-N-(4-pyridinyl)cyclohexane-carboxamide]
morphological change of fibroblasts [1]: dendritic-like morphological change

C=C[C@@]1(C)CC(=O)[C@]2(O)[C@@]3(C)[C@@H](O)CCC(C)(C)[C@@H]3[C@H](O)[C@H](OC(C)=O)[C@@]2(C)O1 [forskolin, (3R,4aR,5S,6S,6aS,10S,10aR, 10bS)-6,10,10b-Trihydroxy-3,4a,7,7,10a-pentamethyl-1-oxo-3-vinyldodecahydro-1H-benzo[f]chromen-5-yl acetate]
promotion of the conversion (screen for supporting factors) ([1]; screen of 22 drugs on the YSG cocktail after pre-treating with VPA): significantly promoted the conversion

CCCC(CCC)C(=O)O [valproic acid, 2-Propylpentanoic acid]
reprogramming efficiency ([1]; pretreating for 2 days before Y27632, SU9516, Go6983): enhance the reprogramming efficiency
